Results reported in PMC6857474, “Differential Effects of the Mitochondria-Active Tetrapeptide SS-31 (D-Arg-dimethylTyr-Lys-Phe-NH2) and Its Peptidase-Targeted Prodrugs in Experimental Acute Kidney Injury” (Frontiers in Pharmacology, 2019).
Like-named read-outs stand apart in the source and are kept apart here. Non-standard residues stand in square brackets, D forms with d. Residues, ends and D or L forms follow the SMILES beside them. Dmt = Cc1cc(O)cc(C)c1C[C@H](N)C(=O)O

How the values were obtained:
in vivo = details: male, mouse, ip, 30 mg/kg
Description: For PK evaluation, SS-31 was administered i.p. to male mice in suspension (gelatine/saline 7.5%/0.62% in water) using an administration volume of 4 ml/kg. Blood samples were collected in tubes containing EDTA as an anticoagulant, and plasma was separated by centrifugation and stored at −80°C. Liver and kidney samples (∼100 mg aliquots) were homogenized in three volumes of water using Precellys tissue homogenization tubes (precellys.com). Twenty-five microliters of each tissue homogenate was further diluted with 25 µl blank plasma to produce the final tissue homogenate for extraction. Prepared samples were stored at −20°C before analysis.
All samples were analyzed using protein precipitation followed by LC-MS/MS analysis. Briefly, 50 µl plasma or final tissue homogenate was mixed with 50 µl 0.5 M HClO4/acetonitrile 9/1 (containing 200 ng/ml bosentan as an internal standard). Samples were stirred and 300 µl water was added, followed by centrifugation at 5600 rpm (4°C, 10 min). Ten microliters of supernatant was analyzed by LC/MS. Calibration standards in plasma were prepared the same way. The LC columns and conditions used were as follows: Phenomenex, Polar RP, 4 µm, and 50 × 2.1 mm at 0.4-ml/min flow rate with a 3-min gradient from 95% solvent A to 95% solvent B (solvent A: water/acetonitrile/HCOOH, 90:10:0.1 with 10 mM NH4 formate; solvent B: water/ACN/HCOOH, 10:90:0.1 with 10 mM NH4 formate). Mass spectrometric conditions were as follows: Thermo TSQ Vantage with positive heated electrospray ionization in MS/MS mode. Mass transitions of the compounds were m/z 320.7 to 119.9. Relative concentrations of the drug and metabolites were established by the percentage of peak area ratio compared to time zero spiked compounds. PK parameters for all studies were calculated using Phoenix WinNonlin Software.

[1] = Stability in mouse plasma at 37°C; assay type: in vitro ADME; details: for Stability [% of T0] / Release of SS-31 from α-Glu-SS-31: 1 μM; for remaining at 0.5 h, 1 µM / remaining at 1 h, 1 µM / remaining at 3 h, 1 µM / remaining at 5 h, 1 µM: heparinized mouse plasma, read-out: Stability [% of T0]
Description: Finally, we determined if α-Glu functionalization of SS-31 would improve the plasma stability of the compound. SS-31 or α-Glu-SS-31 (at 1 µM concentration) was added to heparinized mouse plasma, and the aliquots were incubated at 37°C for various time points before analysis ( Table 2 ). After a rapid decrease of α-Glu-SS-31 concentration, associated with the appearance of free SS-31, in mouse plasma, the concentration of both compounds remained stable for up to 5 h, whereas SS-31 concentration decreased regularly during the same period of time.

aminopeptidase A (APA) [2] = target: T1, aminopeptidase A (APA) (Rattus norvegicus, UniProt P50123); experiment: APA enzymatic activity in intact living EC219 cells (α-Glu-AMC substrate); assay type: cell-based
T1 construct: These cells express high levels of APA and γ-GT activities and can be used to measure kinetics in living cells; endogenous in cells; host or cells: EC219 rat brain-derived endothelial cells
T1 sequence (P50123 whole entry): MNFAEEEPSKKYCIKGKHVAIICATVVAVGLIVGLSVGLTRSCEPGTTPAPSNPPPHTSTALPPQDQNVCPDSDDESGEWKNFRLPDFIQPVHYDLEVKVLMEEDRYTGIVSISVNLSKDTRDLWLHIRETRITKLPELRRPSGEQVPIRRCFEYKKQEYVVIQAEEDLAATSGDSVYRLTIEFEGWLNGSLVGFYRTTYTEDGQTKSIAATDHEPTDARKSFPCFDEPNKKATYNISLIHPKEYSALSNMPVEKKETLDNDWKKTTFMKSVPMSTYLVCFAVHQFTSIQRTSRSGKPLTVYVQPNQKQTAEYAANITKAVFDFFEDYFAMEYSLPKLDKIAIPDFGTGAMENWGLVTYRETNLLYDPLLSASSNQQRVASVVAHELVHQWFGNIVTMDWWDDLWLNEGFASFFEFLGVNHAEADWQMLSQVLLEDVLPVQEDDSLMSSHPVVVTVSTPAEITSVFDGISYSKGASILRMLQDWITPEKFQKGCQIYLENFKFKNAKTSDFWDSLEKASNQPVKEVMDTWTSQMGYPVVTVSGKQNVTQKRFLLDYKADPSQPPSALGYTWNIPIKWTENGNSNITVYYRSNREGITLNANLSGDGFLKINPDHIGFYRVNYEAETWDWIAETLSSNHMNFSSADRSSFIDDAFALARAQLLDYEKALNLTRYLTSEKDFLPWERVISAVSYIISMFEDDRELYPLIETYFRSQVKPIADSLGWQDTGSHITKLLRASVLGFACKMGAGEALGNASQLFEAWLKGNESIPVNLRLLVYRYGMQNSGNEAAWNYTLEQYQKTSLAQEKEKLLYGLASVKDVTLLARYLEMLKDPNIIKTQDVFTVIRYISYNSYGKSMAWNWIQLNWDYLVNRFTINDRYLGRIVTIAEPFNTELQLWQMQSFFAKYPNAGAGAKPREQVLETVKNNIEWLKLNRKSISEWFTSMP
Description: The preparation and characterization of rat brain-derived EC219 endothelial cells were previously described ([Juillerat-Jeanneret et al., 1992]). These cells express high levels of APA and γ-GT activities and can be used to measure kinetics in living cells as APA and γ-GT-positive representative cell models. The cells were grown in Dulbecco’s modified Eagle medium (DMEM) containing 1 g/L glucose, 10% heat-inactivated fetal calf serum (FCS), and antibiotics on uncoated cell culture plastic plates and flasks. MDCK and LLCPK cells were obtained from the American Tissue Culture Collection (ATCC, Manassas, VA, USA) and were grown in DMEM containing 4.5 g/L glucose, 10% FCS, and antibiotics. mCCD, and mDCT cells were a kind gift from O. Bonny (UNIL, Lausanne, Switzerland) and were cultured in DMEM (Ham’s F12 1:1 vol/vol, 60 nM sodium selenate, 5 μg/ml transferrin, 50 nM dexamethasone, 1 nM triiodothyronine, 10 ng/ml epidermal growth factor, 5 μg/ml insulin) and 2% FCS. The characteristics of the used cell lines are shown in Supplementary Table S2 .
Stock solutions of α-Glu-AMC (APA) and γ-Glu-AMC and Gly-Gly (γ-GT) substrates, all from Bachem, were prepared at 10 mM in DMSO. EC219 cells were grown to confluence in 96-well plates (Corning, NY, USA), then the culture medium was removed, and the cell layers washed once with 100 µl PBS and 100 µl of substrates at decreasing concentrations (320–10 µM) of α-Glu-AMC or γ-Glu-AMC and 20 mM Gly-Gly substrates diluted in PBS and increasing concentrations (0–20 µM) of SS-31 analogs were added. The increase in […] was measured at 37°C in a thermostated fluorescence multiwell-plate reader (CytoFluor Series 4000; PerSeptive Biosystems, MA, USA) at λex = 360 nm/λem = 460 nm using the linear portion of the curves. The kinetics values were then graphically determined or according to Wu and colleagues ([Wu et al., 2011]).
(A) Intact living EC219 cells were exposed to increasing concentrations of either amastatin (left panel) or acivicin (right panel), two well-characterized enzymatic activity inhibitors of APA or γ-GT, respectively. The activities of the enzymes aminopeptidase A (APA) or γ-glutamyltranspeptidase (γ-GT) were determined using 40 µM of the substrates (S), α-Glu-AMC or γ-Glu-AMC, respectively. (B) Intact living EC219 cells were exposed to increasing concentrations [10-320 µM] of the APA α-Glu-AMC substrate, in the presence of increasing concentrations of SS-31 or α-Glu-SS-31, and the increase of free AMC fluorescence was recorded. Data were analyzed graphically. (DMSO 0.2% was present in all samples).

aminopeptidase A (APA) [3] = target: T2, aminopeptidase A (APA) (Mus musculus, UniProt P16406); experiment: Histoenzymography of APA activity on frozen kidney sections of ADR-treated mice; assay type: biochemical; details: kidney sections of ADR-exposed mice, α-Glu-βNA substrate, 37°C
T2 construct: from tissue; host or cells: frozen kidney sections of ADR-treated BALB/c male mice
T2 sequence (P16406 1-945): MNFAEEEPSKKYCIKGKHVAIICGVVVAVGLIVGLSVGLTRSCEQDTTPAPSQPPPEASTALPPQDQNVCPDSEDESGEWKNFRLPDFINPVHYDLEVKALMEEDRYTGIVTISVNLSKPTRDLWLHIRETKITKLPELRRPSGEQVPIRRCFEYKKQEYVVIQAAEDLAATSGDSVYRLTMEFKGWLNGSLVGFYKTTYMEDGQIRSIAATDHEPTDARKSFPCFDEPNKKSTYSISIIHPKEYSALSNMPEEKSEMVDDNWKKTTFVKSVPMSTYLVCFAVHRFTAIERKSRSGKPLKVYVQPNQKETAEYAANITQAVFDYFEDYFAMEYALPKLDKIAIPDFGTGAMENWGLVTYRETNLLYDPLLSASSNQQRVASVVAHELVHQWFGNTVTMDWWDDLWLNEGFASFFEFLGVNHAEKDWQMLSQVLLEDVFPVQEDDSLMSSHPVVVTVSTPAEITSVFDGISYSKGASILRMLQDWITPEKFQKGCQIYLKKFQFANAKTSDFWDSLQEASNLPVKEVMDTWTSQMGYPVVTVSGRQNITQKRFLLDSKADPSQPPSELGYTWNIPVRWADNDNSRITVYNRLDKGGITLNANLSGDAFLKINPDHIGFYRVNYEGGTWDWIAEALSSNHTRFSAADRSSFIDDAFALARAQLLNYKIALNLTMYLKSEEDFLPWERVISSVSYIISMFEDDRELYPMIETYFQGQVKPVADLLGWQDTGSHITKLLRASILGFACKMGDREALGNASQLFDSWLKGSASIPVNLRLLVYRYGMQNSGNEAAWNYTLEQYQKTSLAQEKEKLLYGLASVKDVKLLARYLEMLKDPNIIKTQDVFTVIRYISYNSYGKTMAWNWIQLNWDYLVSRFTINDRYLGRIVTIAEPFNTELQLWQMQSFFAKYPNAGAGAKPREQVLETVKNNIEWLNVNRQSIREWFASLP
Description: Enzymatic activities were evaluated by histoenzymography on OCT-embedded frozen kidneys sections (7 µm), as previously described ([Juillerat-Jeanneret et al., 1992]; [Juillerat-Jeanneret et al., 2000]; [Juillerat-Jeanneret et al., 2003]). Briefly, slides were fixed for 5 min in cold (−20°C) acetone, air dried at room temperature, rehydrated for 5 min in 0.9% NaCl, and exposed to the α-Glu-4-methoxy-β-naphtylamide (APA; Bachem) or γ-Glu-4-methoxy-β-naphtylamide (γ-GT; Serva) substrates and Fast Blue B (Sigma-Aldrich) at 37°C for 15 to 60 min until a red coloration was visible. The slides were washed in distilled water, counterstained with hematoxylin (Mayer) for 1 min, rinsed under tap water and then with Scott solution for 1 min, and mounted in Aquamount (Immu-mount; Thermo Shandon, Pittsburgh, PA, USA) and analyzed with a Nikon Eclipse E800 microscope and digital DXM1200 camera using ACT-1 software.
Sequential sections (7 µm) of frozen OCT-embedded kidneys of adriamycin (ADR)-treated mice were exposed at 37°C to β-methoxynaphthylamide (β-NA) specific substrates of aminopeptidase A (α-Glu-βNA, upper panels) or γ-glutamyltranspeptidase (γ-Glu-βNA, lower panels) and Fast Blue B, in the absence (none) or the presence of SS-31, α-Glu-SS-31 or γ-Glu-SS-31. The sections were then counterstained with light hematoxylin reagent. The enzymatic activity is visualized as a red precipitate. […]

## Cc1cc(O)cc(C)c1C[C@H](NC(=O)[C@H](N)CCCNC(=N)N)C(=O)N[C@@H](CCCCN)C(=O)N[C@@H](Cc1ccccc1)C(N)=O [SS-31, D-Arg-dimethylTyr-Lys-Phe-NH2] (H-[dR][Dmt]KF-NH2)
In vivo; kidney
  AUC(0-inf): 31300 ng·h/mL
  AUC(0-t): 27800 ng·h/mL
  Cmax: 17200 ng/mL
  Tmax: 1 h
  half-life: 1.1 h
  level at time molar: ~140 nM
In vivo; liver
  AUC(0-inf): 22100 ng·h/mL
  AUC(0-t): 20700 ng·h/mL
  Cmax: 12700 ng/mL
  Tmax: 1 h
  half-life: 0.9 h
In vivo; plasma
  AUC(0-inf): 21100 ng·h/mL
  AUC(0-t): 21100 ng·h/mL
  Cmax: 20000 ng/mL
  Tmax: 1 h
  half-life: 0.3 h
[1]; time 0 h
  Stability [% of T0]: 100%
[1]; time 0.5 h
  remaining at 0.5 h, 1 µM: 89.3%
[1]; time 1 h
  remaining at 1 h, 1 µM: 85.3%
[1]; time 3 h
  remaining at 3 h, 1 µM: 50.1%
[1]; time 5 h
  remaining at 5 h, 1 µM: 43%
Aminopeptidase A (APA) [2]
  IC50: 8.5 ± 3.8 µM

## CC(C)C[C@@H](N)[C@H](O)C(=O)N[C@H](C(=O)N[C@H](C(=O)N[C@@H](CC(=O)O)C(=O)O)C(C)C)C(C)C [amastatin]
Aminopeptidase A (APA) [2]; intact living EC219 cells, 40 µM α-Glu-AMC, read-out: IC50 APA
  IC50: < 1 µM

## Cc1cc(O)cc(C)c1C[C@H](NC(=O)[C@@H](CCCNC(=N)N)NC(=O)[C@@H](N)CCC(=O)O)C(=O)N[C@@H](CCCCN)C(=O)N[C@@H](Cc1ccccc1)C(N)=O [α-Glu-SS-31, H-Glu-D-Arg-DMT-Lys-Phe-NH 2 .2TFA] (H-E[dR][Dmt]KF-NH2)
[1]; time 0 h
  Release of SS-31 from α-Glu-SS-31: 7.5%
  Stability [% of T0]: 100%
[1]; time 0.5 h
  Release of SS-31 from α-Glu-SS-31: 9%
  remaining at 0.5 h, 1 µM: 68.5%
[1]; time 1 h
  Release of SS-31 from α-Glu-SS-31: 9%
  remaining at 1 h, 1 µM: 68.3%
[1]; time 3 h
  Release of SS-31 from α-Glu-SS-31: 10%
  remaining at 3 h, 1 µM: 66.9%
[1]; time 5 h
  Release of SS-31 from α-Glu-SS-31: 9%
  remaining at 5 h, 1 µM: 65.8%
Aminopeptidase A (APA) [2]
  IC50: 13.7 ± 6.7 µM
Aminopeptidase A (APA) [2]; intact living EC219 cells
  inhibition of APA activity: selective inhibition
Aminopeptidase A (APA) [3]
  enzymatic activity of APA (histoenzymography): selectively inhibited
